Data published in ChEMBL document CHEMBL1157528, “Mixed tetraoxanes containing the acetone subunit as antimalarials” (Bioorg Med Chem, 2008).
The source made the active and inactive calls. The rule behind the calls is not given here.

Columns and labels:
Plasmodium berghei [1] = experiment: Antimalarial activity as survival time against Plasmodium berghei KBG173 infected CD1 mice (Mus musculus) at 160 mg/kg/day subcutaneous dose; assay type: functional
Plasmodium berghei [2] = experiment: Antimalarial activity as survival time against Plasmodium berghei KBG173 infected CD1 mice (Mus musculus) at 80 mg/kg/day subcutaneous dose; assay type: functional
Plasmodium berghei [3] = experiment: Antimalarial activity against Plasmodium berghei KBG173 infected CD1 mice (Mus musculus) assessed as survival time at 80 mg/kg/day, subcutaneously administered on day 3 twice a day; assay type: functional; conditions: route subcutaneous
Plasmodium berghei [4] = experiment: Antimalarial activity as reduced parasitaemia at day 17 against Plasmodium berghei KBG173 infected CD1 mice (Mus musculus) at 320 mg/kg/day peroral dose; assay type: functional; design: scale not given: the % may be the effect or the level left; conditions: route oral
Plasmodium berghei [5] = experiment: Antimalarial activity as reduced parasitaemia at day 20 against Plasmodium berghei KBG173 infected CD1 mice (Mus musculus) at 320 mg/kg/day peroral dose; assay type: functional; design: scale not given: the % may be the effect or the level left; conditions: route oral
Plasmodium berghei [6] = experiment: Antimalarial activity as reduced parasitaemia after 24 days against Plasmodium berghei KBG173 infected CD1 mice (Mus musculus) at 320 mg/kg/day peroral dose; assay type: functional; design: scale not given: the % may be the effect or the level left; conditions: route oral
Plasmodium berghei [7] = experiment: Antimalarial activity as reduced parasitaemia after 27 days against Plasmodium berghei KBG173 infected CD1 mice (Mus musculus) at 320 mg/kg/day peroral dose; assay type: functional; design: scale not given: the % may be the effect or the level left; conditions: route oral
Plasmodium berghei [8] = experiment: Antimalarial activity as reduced parasitaemia after 31 days against Plasmodium berghei KBG173 infected CD1 mice (Mus musculus) at 320 mg/kg/day peroral dose; assay type: functional; design: scale not given: the % may be the effect or the level left; conditions: route oral
Plasmodium berghei [9] = experiment: Antimalarial activity as reduced parasitaemia after 10 days against Plasmodium berghei KBG173 infected CD1 mice (Mus musculus) at 40 mg/kg/day subcutaneous dose; assay type: functional; design: scale not given: the % may be the effect or the level left
Plasmodium berghei [10] = experiment: Antimalarial activity as reduced parasitaemia after 13 days against Plasmodium berghei KBG173 infected CD1 mice (Mus musculus) at 40 mg/kg/day subcutaneous dose; assay type: functional; design: scale not given: the % may be the effect or the level left
Plasmodium berghei [11] = experiment: Antimalarial activity as reduced parasitaemia after 17 days against Plasmodium berghei KBG173 infected CD1 mice (Mus musculus) at 40 mg/kg/day subcutaneous dose; assay type: functional; design: scale not given: the % may be the effect or the level left
Plasmodium berghei [12] = experiment: Antimalarial activity as reduced parasitaemia after 20 days against Plasmodium berghei KBG173 infected CD1 mice (Mus musculus) at 40 mg/kg/day subcutaneous dose; assay type: functional; design: scale not given: the % may be the effect or the level left
Plasmodium berghei [13] = experiment: Antimalarial activity as reduced parasitaemia after 24 days against Plasmodium berghei KBG173 infected CD1 mice (Mus musculus) at 40 mg/kg/day subcutaneous dose; assay type: functional; design: scale not given: the % may be the effect or the level left
Plasmodium berghei [14] = experiment: Antimalarial activity as reduced parasitaemia after 27 days against Plasmodium berghei KBG173 infected CD1 mice (Mus musculus) at 40 mg/kg/day subcutaneous dose; assay type: functional; design: scale not given: the % may be the effect or the level left
Plasmodium berghei [15] = experiment: Antimalarial activity as reduced parasitaemia after 31 days against Plasmodium berghei KBG173 infected CD1 mice (Mus musculus) at 40 mg/kg/day subcutaneous dose; assay type: functional; design: scale not given: the % may be the effect or the level left
Plasmodium berghei [16] = experiment: Antimalarial activity as reduced parasitaemia after 10 days against Plasmodium berghei KBG173 infected CD1 mice (Mus musculus) at 20 mg/kg/day subcutaneous dose; assay type: functional; design: scale not given: the % may be the effect or the level left
Plasmodium berghei [17] = experiment: Antimalarial activity as reduced parasitaemia after 13 days against Plasmodium berghei KBG173 infected CD1 mice (Mus musculus) at 20 mg/kg/day subcutaneous dose; assay type: functional; design: scale not given: the % may be the effect or the level left
Plasmodium berghei [18] = experiment: Antimalarial activity as reduced parasitaemia after 17 days against Plasmodium berghei KBG173 infected CD1 mice (Mus musculus) at 20 mg/kg/day subcutaneous dose; assay type: functional; design: scale not given: the % may be the effect or the level left
[19] = Cytotoxicity against human NCI60 cells; assay type: functional
Plasmodium berghei [20] = experiment: Antimalarial activity as reduced parasitaemia at day 6 in Plasmodium berghei KBG173 infected CD1 mice (Mus musculus) at 20 mg/kg/day subcutaneous dose; assay type: functional; design: scale not given: the % may be the effect or the level left
Plasmodium falciparum [21] = experiment: Relative activity against Plasmodium falciparum W2 as ratio of IC90 to IC50; assay type: functional
[22] = Metabolic stability in human liver microsomes assessed as half life at 10 uM; assay type: ADME, Microsome
[23] = Metabolic stability in mouse liver microsomes assessed as half life at 10 uM; assay type: ADME, Microsome
Plasmodium berghei [24] = experiment: Antimalarial activity as parasite-free survivors at day 31 of Plasmodium berghei KBG173 infected CD1 mice (Mus musculus) at 20 mg/kg/day peroral dose; assay type: functional, organism-based
Plasmodium berghei [25] = experiment: Antimalarial activity as parasite-free survivors at day 31 of Plasmodium berghei KBG173 infected CD1 mice (Mus musculus) at 160 mg/kg/day subcutaneous dose; assay type: functional, organism-based
Plasmodium berghei [26] = experiment: Antimalarial activity as parasite-free survivors at day 31 of Plasmodium berghei KBG173 infected CD1 mice (Mus musculus) at 20 mg/kg/day subcutaneous dose; assay type: functional, organism-based
Plasmodium berghei [27] = experiment: Antimalarial activity as survival time in Plasmodium berghei KBG173 infected CD1 mice (Mus musculus) at 320 mg/kg/day peroral dose; assay type: functional; conditions: route oral
Plasmodium berghei [28] = experiment: Antimalarial activity as survival time against Plasmodium berghei KBG173 infected CD1 mice (Mus musculus) at 80 mg/kg/day peroral dose 3 - 5 days post infection; assay type: functional; conditions: route oral
Plasmodium berghei [29] = experiment: Antimalarial activity as survival time in Plasmodium berghei KBG173 infected CD1 mice (Mus musculus) at 20 mg/kg/day peroral dose; assay type: functional; conditions: route oral
Plasmodium falciparum [30] = experiment: microbe, parasite or virus in culture; conditions: TM91C235
Description: Antimalarial activity against mefloquine, chloroquine and quinine-resistant Plasmodium falciparum TM91C235

Plasmodium falciparum [31] = experiment: microbe, parasite or virus in culture; conditions: D6
Description: Antimalarial activity against chloroquine and pyrimethamine-sensitive Plasmodium falciparum D6

Plasmodium falciparum [32] = experiment: microbe, parasite or virus in culture; conditions: W2
Description: Antimalarial activity against chloroquine and pyrimethamine-resistant Plasmodium falciparum W2

SMILES: CC(=O)O[C@H]1C[C@H]2[C@@H]([C@H](OC(C)=O)C[C@@H]3CC4(CC[C@@]32C)OOC(C)(C)OO4)[C@@H]2CC[C@H]([C@H](C)CCC(=O)NCCN(C)C)[C@@]12C
- Survival (Plasmodium berghei [1]): 31 days
- Survival (Plasmodium berghei [2]): 25 days
- Survival (Plasmodium berghei [3]): 16 days
- Activity (Plasmodium berghei [4]): 2.36%
- Activity (Plasmodium berghei [5]): 1.9%
- Activity (Plasmodium berghei [6]): 1.4%
- Activity (Plasmodium berghei [7]): 0%
- Activity (Plasmodium berghei [8]): 0%
- Activity (Plasmodium berghei [9]): 0%
- Activity (Plasmodium berghei [10]): 0.004%
- Activity (Plasmodium berghei [11]): 15.48%
- Activity (Plasmodium berghei [12]): 3.9%
- Activity (Plasmodium berghei [13]): 12.53%
- Activity (Plasmodium berghei [14]): 0%
- Activity (Plasmodium berghei [15]): 0%
- Activity (Plasmodium berghei [16]): 0.032%
- Activity (Plasmodium berghei [17]): 8.72%
- Activity (Plasmodium berghei [18]): 26.8%
- GI50 [19]: 3390 nM
- LC50 [19]: 22400 nM
- TGI [19]: 10200 nM
- Activity (Plasmodium berghei [20]): 0.002%
- Ratio (Plasmodium falciparum [21]): 1.71
- half-life at 10 µM [22]: > 1 h
- half-life at 10 µM [23]: > 1 h
- Activity (Plasmodium berghei [24]): inactive
- Activity (Plasmodium berghei [25]): Active
- Activity (Plasmodium berghei [26]): inactive
- Survival (Plasmodium berghei [27]): 29 days
- Survival (Plasmodium berghei [28]): 14 days
- Survival (Plasmodium berghei [29]): 8 days
- IC50 (Plasmodium falciparum [30]): 7.16 nM
- IC90 (Plasmodium falciparum [30]): 19.8 nM
- IC50 (Plasmodium falciparum [31]): 11.6 nM
- IC90 (Plasmodium falciparum [31]): 26.2 nM
- IC50 (Plasmodium falciparum [32]): 9.79 nM
- IC90 (Plasmodium falciparum [32]): 16.8 nM
